From paper PMC2561905 (Biochemistry, 2008)
Read-outs that look alike come from different tables or passages of the source.

What was measured:
S61C [1] = conditions: read-out: Operator capture by LLhP and variants (× 10^-7 M hypoxanthine), lacO^1; [co-repressor]mid; SD, n = 3
I48V [2] = conditions: read-out: Operator capture by LLhP and variants (× 10^-7 M hypoxanthine), lacO^disC; [co-repressor]mid; SD, n = 3
I48S [3] = conditions: read-out: Operator capture by LLhP and variants (× 10^-7 M hypoxanthine), lacO^sym; [co-repressor]mid; SD, n = 3
I48V [4] = conditions: read-out: Operator capture by LLhP and variants (× 10^-7 M hypoxanthine), lacO^sym; [co-repressor]mid; SD, n = 3
Q55V [5] = conditions: read-out: Operator capture by LLhP and variants (× 10^-7 M hypoxanthine), lacO^1; [co-repressor]mid; SD, n = 3
LLhP [6] = conditions: read-out: Operator capture by LLhP and variants (× 10^-7 M hypoxanthine), lacO^disC; [co-repressor]mid; SD, n = 3
Q55T [7] = conditions: read-out: Operator capture by LLhP and variants (× 10^-7 M hypoxanthine), lacO^sym; [co-repressor]mid; SD, n = 3
LLhP [8] = conditions: read-out: Operator capture by LLhP and variants (× 10^-7 M hypoxanthine), lacO^sym; [co-repressor]mid; SD, n = 3
LLhP [9] = conditions: read-out: Operator capture by LLhP and variants (× 10^-7 M hypoxanthine), lacO^1; [co-repressor]mid; SD, n = 3
Q55T [10] = conditions: read-out: Operator capture by LLhP and variants (× 10^-7 M hypoxanthine), lacO^1; [co-repressor]mid; SD, n = 3
I48S [11] = conditions: read-out: Operator capture by LLhP and variants (× 10^-7 M hypoxanthine), lacO^disC; [co-repressor]mid; SD, n = 3
I48V [12] = conditions: read-out: Operator capture by LLhP and variants (× 10^-7 M hypoxanthine), lacO^1; [co-repressor]mid; SD, n = 3
I48S [13] = conditions: read-out: Operator capture by LLhP and variants (× 10^-7 M hypoxanthine), lacO^1; [co-repressor]mid; SD, n = 3
S61C [14] = conditions: read-out: Operator capture by LLhP and variants (× 10^-7 M hypoxanthine), lacO^disC; [co-repressor]mid; SD, n = 3
S61M [15] = conditions: read-out: Operator capture by LLhP and variants (× 10^-7 M hypoxanthine), lacO^1; [co-repressor]mid; SD, n = 3
Q55V [16] = conditions: read-out: Operator capture by LLhP and variants (× 10^-7 M hypoxanthine), lacO^sym; [co-repressor]mid; SD, n = 3
S61M [17] = conditions: read-out: Operator capture by LLhP and variants (× 10^-7 M hypoxanthine), lacO^disC; [co-repressor]mid; SD, n = 3
Q55T [18] = conditions: read-out: Operator capture by LLhP and variants (× 10^-7 M hypoxanthine), lacO^disC; [co-repressor]mid; SD, n = 3
Q55V [19] = conditions: read-out: Operator capture by LLhP and variants (× 10^-7 M hypoxanthine), lacO^disC; [co-repressor]mid; SD, n = 3
lacO^1 operator DNA = experiment: Operator capture experiment with lacO^1; assay type: binding, E. coli; conditions: curves super-imposable for three different operator sequences
lacO^disC operator DNA = experiment: Nitrocellulose filter binding, DNA-binding affinity for lacO^disC; conditions: LLhP+HX compared with LacI without inducer
lacO^sym operator DNA = conditions: LacI without inducer; cited from earlier work

O=c1[nH]cnc2[nH]cnc12 [hypoxanthine, hypoxanthine (HX)]
EC50 (S61C [1]): 4700 ± 410 nM
EC50 (I48V [2]): 3300 ± 160 nM
EC50 (I48S [3]): 670 ± 60 nM
EC50 (I48V [4]): 570 ± 50 nM
EC50 (Q55V [5]): 1000 ± 130 nM
EC50 (LLhP [6]): 370 ± 80 nM
EC50 (Q55T [7]): 430 ± 40 nM
EC50 (LLhP [8]): 550 ± 230 nM
EC50 (LLhP [9]): 410 ± 70 nM
EC50 (Q55T [10]): 1000 ± 80 nM
EC50 (I48S [11]): 1600 ± 180 nM
EC50 (I48V [12]): 880 ± 60 nM
EC50 (I48S [13]): 950 ± 70 nM
EC50 (S61C [14]): 8000 ± 270 nM
EC50 (S61M [15]): 5900 ± 340 nM
EC50 (Q55V [16]): 850 ± 60 nM
EC50 (S61M [17]): 11700 ± 1200 nM
EC50 (Q55T [18]): 2100 ± 160 nM
EC50 (Q55V [19]): 2200 ± 80 nM

B1: LLhP: chimeric repressor: LacI DNA-binding domain, LacI linker and PurR regulatory domain; homodimer (protein)
chain: MKPVTLYDVAEYAGVSYQTVSRVVNQASHVSAKTREKVEAAMAELNYIPNRVAQQLAGKQSLLIGVATSSLALHAPSQIVAAIKSRADQLGASVVVSMVERSGVEACKAAVHNLLAQRVSGLIINYPLDDQDAIAVEAACTNVPALFLDVSDQTPINSIIFSHEDGTRLGVEHLVALGHQQIALLAGPLSSVSARLRLAGWHKYLTRNQIQPIAEREGDWSAMSGFQQTMQMLNEGIVPTAMLVANDQMALGAMRAITESGLRVGADISVVGYDDTEDSSCYIPPLTTIKQDFRLLGQTSVDRLLQLSQGQAVKGNQLLPVSLVKRKTTLAPNATIKDVAKRANVSTTTVSHVINKTRFVAEETRNAVWAAIKELHYSPSAVARSLKVNHTKSIGLLATSSEAAYFAEIIEAVEKNCFQKGYTLILGNAWNNLEKQRAYLSMMAQKRVDGLLVMCSEYPEPLLAMLEEYRHIPMVVMDWGEAKADFTDAVIDNAFEGGYMAGRYLIERGHREIGVIPGPLERNTGAGRLAGFMKAMEEAMIKVPESWIVQGDFEPESGYRAMQQILSQPHRPTAVFCGGDIMAMGALCAADEMGLRVPQDVSLIGYDNVRNARYFTPALTTIHQPKDSLGETAFNMLLDRIVNKREEPQSIEVHPRLIERRSVADGPFRDYRR
Operator capture mid-point (lacO^1 operator DNA): around 4.4 × 10 ^−7 M hypoxanthine
Tighter binding of lacO^disC than LacI (lacO^disC operator DNA): ~30 fold

B2: LacI: lactose repressor protein, naturally-occurring LacI/GalR homologue used for comparison (protein, UniProt P03023 1-360, looked up)
Lactose operon repressor: MKPVTLYDVAEYAGVSYQTVSRVVNQASHVSAKTREKVEAAMAELNYIPNRVAQQLAGKQSLLIGVATSSLALHAPSQIVAAIKSRADQLGASVVVSMVERSGVEACKAAVHNLLAQRVSGLIINYPLDDQDAIAVEAACTNVPALFLDVSDQTPINSIIFSHEDGTRLGVEHLVALGHQQIALLAGPLSSVSARLRLAGWHKYLTRNQIQPIAEREGDWSAMSGFQQTMQMLNEGIVPTAMLVANDQMALGAMRAITESGLRVGADISVVGYDDTEDSSCYIPPLTTIKQDFRLLGQTSVDRLLQLSQGQAVKGNQLLPVSLVKRKTTLAPNTQTASPRALADSLMQLARQVSRLESGQ
Tighter binding of lacO^sym than lacO^1 (lacO^sym operator DNA): ~10 fold
